Reference: patent publication US12187681B2 (Shanghai East Hospital, priority 2019, dated 2025)
Structures can show the parent of a compound that is named as a salt.

Legend:
[1] = biological target: T1, CaV1.2 (L-type voltage-dependent calcium channel; CACNA1C, CACNB2, CACNA2D1) (Homo sapiens, UniProt Q13936); test: CaV1.2 channel whole-cell patch clamp (Ion Channel Activity Measurement); format: cell-based; conditions: human, room temperature; for inhibition at 5 min, 1 μM: pH 7.4, 1 μM test article; for inhibition at 5 min, 10 μM: pH 7.4, 10 μM test article, read-out: CaV 1.2 10 μM (ion-channel inhibition)
T1 construct: expressed in transfected cells; host or cells: CHO
Protocol: • CHO cell line stably expressing human calcium channel, voltage-dependent, L type, • CACNA1C: cDNA strictly similar to GenBank accession number: NM_000719 • CACNB2: cDNA strictly similar to GenBank accession number: NM_000724 • CACNA2D1: cDNA strictly similar to GenBank accession number: NM_000722 Iks Channel Cell Line:
(§1) Cells expressing channels were cultured in medium supplemented with 20% FBS in HAM'S F12 culture dish. Cells grew in a humidified incubator at 37° C. under 5% carbon dioxide. To passage cells, remove poor medium and rinse the cells once with PBS 1X. […] Place plate on a 37° C. warming incubator 5 min. As soon as cells are detached, add 5 ml of 37° C. complete medium. Draw cell suspension into a sterile pipet and homogenize cells gently to dissociate cells aggregates. Amplify or maintain the cells by seeding 2.5*105 cells in a 6 cm dish (final volume: 5 ml). To maintain electrophysiological performances, cell density must not exceed 80%. On the day before patch clamp experiment, 3*103 cells were seeded on coverslips in the 24-well plate and incubated at 37° C. in 5% carbon dioxide.
Bath solution: 140 mM TEA-C1, 2 mM MgCl2·6H2O, 10 mM CaCl2, 10 mM HEPES, 5 mM D-glucose, pH=7.4 with TEA-OH. Pipette solution: 120 mM CsCl, 1 mM MgCl2·6H2O, 10 mM HEPES, 10 mM EGTA, 0.3 mM Na2-GTP, 4 mM Mg-ATP, pH=7.2 with CsOH.
(§2) Glass pipette (BF150-86-10, Sutter Instruments) was made by puller (P97, Sutter Instruments). The glass pipette was manipulated using Micro-manipulator (Carm-C-S, MCI Instruments) under the microscope (AE31EF-INV, Motic). After touching the cell, a slight suction was applied to achieve high seal (GΩ). Fast capacitance (in pF) compensation was made after high seal was achieved; after achieving high seal, the membrane was broken, Cell capacitance (in pF) compensation was made from whole-cell capacitance compensation after the whole cell mode was achieved. No leak subtraction was made.
(§3) Cell was incubated with the test article for 5 minutes, or until the current reached a steady-state level. Multiple concentrations of test article were tested. The test articles were applied gradually from low to high concentration. The test and control solutions were flown into a recording chamber mounted on the stage of an inverted microscope via a gravity-fed solution delivery system. During the experiment, solutions were withdrawn from the recording chamber by vacuum aspiration. Each concentration was tested at multiple times. Each cell acted as its own control. All tests were performed at room temperature (23-25° C.).
Cav1.2 current was recorded under a holding potential at −80 mV and then depolarized to +10 mV for 0.3 seconds. This protocol was repeated at 20 s intervals to observe the effect of test articles on the peak of Cav1.2 current.

[2] = biological target: T2, hERG (human ether-a-go-go related gene potassium channel, KCNH2) (Homo sapiens, UniProt Q12809); test: hERG channel whole-cell patch clamp (Ion Channel Activity Measurement); format: cell-based; conditions: human, room temperature; for inhibition at 1 μM: pH 7.4, 1 μM test article; for inhibition at 10 μM: pH 7.4, 10 μM test article
T2 construct: expressed in transfected cells; host or cells: HEK293
Protocol: HEK293 cell line expressing the human ERG (ether-a-go-go related gene) potassium channel (Potassium voltage-gated channel subfamily H member 2). cDNA strictly similar to GenBank accession number: NM_000238
as §1, §2, §3
hERG current was recorded under a holding potential at −80 mV and then depolarized to 30 mV for 2.5 seconds to activate the hERG channel. The peak tail currents were induced by a repolarizing pulse to −50 mV for 4 seconds. This voltage-clamp pulse protocol was performed continuously during the experiment. An interpulse interval of 10 seconds allowed recovery from inactivation. An interpulse of −50 mV test for 0.5 second before 30 mV depolarized step was included for leak current correction

[3] = HEK293 cells expressing the human ERG potassium channel

T2 sequence (Q12809 whole entry): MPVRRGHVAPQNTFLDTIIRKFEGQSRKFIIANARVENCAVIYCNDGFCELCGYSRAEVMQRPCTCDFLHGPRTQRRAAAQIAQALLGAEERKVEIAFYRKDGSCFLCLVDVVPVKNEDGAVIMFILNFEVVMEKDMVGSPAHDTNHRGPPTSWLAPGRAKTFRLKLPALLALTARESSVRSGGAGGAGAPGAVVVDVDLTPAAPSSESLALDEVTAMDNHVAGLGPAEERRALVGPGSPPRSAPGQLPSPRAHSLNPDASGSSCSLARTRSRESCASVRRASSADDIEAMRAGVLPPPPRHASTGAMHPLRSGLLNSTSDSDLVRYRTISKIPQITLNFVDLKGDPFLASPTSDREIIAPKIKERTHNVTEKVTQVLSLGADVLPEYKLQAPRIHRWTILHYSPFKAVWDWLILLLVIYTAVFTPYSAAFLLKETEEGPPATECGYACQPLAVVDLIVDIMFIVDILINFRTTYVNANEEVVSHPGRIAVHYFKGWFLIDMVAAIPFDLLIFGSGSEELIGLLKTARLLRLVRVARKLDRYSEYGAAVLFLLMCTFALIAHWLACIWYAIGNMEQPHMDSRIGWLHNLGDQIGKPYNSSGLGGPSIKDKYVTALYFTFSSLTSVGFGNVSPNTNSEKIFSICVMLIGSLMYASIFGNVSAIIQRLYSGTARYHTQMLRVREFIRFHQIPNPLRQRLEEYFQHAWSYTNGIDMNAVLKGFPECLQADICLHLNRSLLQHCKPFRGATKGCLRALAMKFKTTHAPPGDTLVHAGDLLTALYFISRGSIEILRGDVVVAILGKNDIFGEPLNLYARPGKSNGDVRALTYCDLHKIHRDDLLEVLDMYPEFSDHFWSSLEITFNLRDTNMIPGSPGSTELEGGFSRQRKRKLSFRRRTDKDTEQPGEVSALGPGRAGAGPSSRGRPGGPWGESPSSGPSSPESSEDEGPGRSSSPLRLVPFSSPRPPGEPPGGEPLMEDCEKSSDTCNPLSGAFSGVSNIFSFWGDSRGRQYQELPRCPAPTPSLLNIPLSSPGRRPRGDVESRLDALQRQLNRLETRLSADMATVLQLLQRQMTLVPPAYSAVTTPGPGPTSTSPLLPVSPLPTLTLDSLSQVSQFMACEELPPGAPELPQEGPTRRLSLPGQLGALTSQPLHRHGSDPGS
T1 sequence (Q13936 1-2138 isoform Q13936-12): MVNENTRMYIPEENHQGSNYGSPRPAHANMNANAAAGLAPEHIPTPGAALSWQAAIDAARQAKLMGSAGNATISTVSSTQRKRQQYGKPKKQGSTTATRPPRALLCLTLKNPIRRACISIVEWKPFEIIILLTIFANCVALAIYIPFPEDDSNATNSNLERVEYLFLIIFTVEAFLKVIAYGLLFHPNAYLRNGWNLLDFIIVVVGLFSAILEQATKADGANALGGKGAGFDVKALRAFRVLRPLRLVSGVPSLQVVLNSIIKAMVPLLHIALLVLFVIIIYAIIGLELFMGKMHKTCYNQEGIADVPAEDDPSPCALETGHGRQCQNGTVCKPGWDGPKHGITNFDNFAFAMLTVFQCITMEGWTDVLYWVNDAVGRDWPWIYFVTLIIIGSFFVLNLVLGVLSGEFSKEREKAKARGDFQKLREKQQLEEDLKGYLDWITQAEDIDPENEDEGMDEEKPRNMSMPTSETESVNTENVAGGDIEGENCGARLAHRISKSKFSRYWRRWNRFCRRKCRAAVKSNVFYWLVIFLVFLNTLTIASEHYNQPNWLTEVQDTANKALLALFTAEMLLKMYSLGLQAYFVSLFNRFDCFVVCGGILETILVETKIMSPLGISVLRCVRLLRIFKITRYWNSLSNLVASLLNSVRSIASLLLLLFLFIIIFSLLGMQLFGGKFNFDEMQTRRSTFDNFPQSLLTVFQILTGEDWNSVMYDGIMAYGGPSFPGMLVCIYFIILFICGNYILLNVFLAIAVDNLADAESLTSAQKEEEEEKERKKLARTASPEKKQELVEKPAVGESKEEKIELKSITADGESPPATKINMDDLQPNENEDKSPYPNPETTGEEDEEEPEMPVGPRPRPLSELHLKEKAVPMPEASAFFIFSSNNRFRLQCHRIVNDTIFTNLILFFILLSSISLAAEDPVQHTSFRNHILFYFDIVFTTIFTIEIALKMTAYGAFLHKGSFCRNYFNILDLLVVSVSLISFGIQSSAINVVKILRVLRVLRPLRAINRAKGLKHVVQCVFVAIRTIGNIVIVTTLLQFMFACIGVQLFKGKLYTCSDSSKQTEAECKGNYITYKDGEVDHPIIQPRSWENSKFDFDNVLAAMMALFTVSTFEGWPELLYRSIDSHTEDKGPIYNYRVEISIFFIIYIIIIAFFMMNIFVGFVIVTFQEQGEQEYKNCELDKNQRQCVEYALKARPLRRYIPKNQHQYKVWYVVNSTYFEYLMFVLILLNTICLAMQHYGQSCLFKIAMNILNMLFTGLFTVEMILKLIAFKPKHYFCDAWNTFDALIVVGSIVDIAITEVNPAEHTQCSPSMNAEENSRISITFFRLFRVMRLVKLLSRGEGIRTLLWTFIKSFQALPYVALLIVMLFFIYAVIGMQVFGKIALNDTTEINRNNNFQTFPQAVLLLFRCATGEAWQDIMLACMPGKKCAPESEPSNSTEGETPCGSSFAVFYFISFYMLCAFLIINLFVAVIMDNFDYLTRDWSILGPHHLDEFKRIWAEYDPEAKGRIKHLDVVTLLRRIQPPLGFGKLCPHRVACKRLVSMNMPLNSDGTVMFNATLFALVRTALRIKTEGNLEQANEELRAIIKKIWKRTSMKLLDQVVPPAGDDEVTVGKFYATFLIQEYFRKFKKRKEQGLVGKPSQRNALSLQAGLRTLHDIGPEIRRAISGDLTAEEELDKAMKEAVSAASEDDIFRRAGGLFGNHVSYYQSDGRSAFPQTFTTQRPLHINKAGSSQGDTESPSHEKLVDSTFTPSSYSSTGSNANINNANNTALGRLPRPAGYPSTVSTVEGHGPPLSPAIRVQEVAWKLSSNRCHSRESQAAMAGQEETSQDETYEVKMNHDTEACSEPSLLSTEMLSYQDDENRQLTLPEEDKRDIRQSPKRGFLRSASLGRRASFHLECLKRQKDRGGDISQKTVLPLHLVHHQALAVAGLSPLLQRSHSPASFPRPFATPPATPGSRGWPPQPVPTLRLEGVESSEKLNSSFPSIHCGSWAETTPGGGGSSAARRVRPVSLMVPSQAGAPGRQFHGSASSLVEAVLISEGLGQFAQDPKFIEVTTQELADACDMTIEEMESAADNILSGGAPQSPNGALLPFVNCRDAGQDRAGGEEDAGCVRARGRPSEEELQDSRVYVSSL
T1 sequence (Q08289 1-605 isoform Q08289-2 partner): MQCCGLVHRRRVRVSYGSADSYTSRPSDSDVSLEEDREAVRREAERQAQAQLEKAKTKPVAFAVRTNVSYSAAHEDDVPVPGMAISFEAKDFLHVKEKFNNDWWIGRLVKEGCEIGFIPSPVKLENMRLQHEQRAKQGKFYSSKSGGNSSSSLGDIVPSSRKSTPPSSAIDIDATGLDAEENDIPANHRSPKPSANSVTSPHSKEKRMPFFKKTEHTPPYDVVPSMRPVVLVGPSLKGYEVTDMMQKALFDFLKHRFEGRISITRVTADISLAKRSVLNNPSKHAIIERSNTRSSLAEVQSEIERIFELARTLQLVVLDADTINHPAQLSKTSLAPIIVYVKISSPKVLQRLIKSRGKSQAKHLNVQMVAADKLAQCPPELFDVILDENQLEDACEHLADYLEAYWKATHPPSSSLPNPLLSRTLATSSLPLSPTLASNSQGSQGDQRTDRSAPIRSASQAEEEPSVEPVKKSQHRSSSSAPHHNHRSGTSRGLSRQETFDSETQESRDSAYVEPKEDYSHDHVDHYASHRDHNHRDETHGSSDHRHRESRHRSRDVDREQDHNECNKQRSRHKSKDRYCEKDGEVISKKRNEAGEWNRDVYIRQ
T1 sequence (P54289 25-1091 isoform P54289-2 partner limits assumed): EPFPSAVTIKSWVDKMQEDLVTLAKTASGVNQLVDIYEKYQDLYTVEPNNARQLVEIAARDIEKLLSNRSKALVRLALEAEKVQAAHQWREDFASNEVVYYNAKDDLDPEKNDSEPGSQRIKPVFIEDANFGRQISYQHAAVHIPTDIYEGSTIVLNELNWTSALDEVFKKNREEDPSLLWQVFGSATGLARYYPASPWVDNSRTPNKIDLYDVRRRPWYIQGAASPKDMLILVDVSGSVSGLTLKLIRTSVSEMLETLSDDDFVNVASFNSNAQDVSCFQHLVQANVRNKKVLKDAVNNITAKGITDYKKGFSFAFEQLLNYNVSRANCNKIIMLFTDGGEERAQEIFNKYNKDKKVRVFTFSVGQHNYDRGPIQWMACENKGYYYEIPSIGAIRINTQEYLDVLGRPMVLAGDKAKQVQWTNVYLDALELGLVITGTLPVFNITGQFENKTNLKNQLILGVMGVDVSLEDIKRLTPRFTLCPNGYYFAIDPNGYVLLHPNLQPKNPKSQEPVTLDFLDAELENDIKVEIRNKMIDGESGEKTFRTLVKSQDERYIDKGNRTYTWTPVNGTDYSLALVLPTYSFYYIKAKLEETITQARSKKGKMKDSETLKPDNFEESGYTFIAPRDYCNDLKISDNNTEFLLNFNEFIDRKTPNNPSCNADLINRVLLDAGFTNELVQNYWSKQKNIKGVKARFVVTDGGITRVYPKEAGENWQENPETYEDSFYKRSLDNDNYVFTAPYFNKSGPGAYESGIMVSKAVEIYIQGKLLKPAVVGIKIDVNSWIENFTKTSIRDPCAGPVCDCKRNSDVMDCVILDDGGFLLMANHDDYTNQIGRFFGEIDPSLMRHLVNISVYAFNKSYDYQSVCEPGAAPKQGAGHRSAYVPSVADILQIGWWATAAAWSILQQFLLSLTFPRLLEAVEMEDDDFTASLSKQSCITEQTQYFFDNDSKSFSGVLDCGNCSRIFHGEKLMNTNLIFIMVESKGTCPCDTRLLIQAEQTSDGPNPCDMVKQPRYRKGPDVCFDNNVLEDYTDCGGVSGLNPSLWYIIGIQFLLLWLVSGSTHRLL
T1 sequence (P54289 957-1103 partner limits assumed): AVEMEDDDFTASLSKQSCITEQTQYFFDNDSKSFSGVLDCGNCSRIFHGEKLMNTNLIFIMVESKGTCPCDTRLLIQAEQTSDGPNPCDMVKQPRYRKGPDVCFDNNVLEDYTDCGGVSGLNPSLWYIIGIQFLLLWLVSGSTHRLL

| SMILES | inhibition at 5 min, 1 μM [1] | inhibition at 5 min, 10 μM [1] | inhibition at 1 μM [2, 3] | inhibition at 10 μM [2, 3] | inhibition at 1 μM [2] | inhibition at 10 μM [2] |
| --- | --- | --- | --- | --- | --- | --- |
| CCOCOc1ccc2ccccc2c1Cc1c(OCC2CCNCC2)ccc2ccccc12 [Compound A279, 4-(((1-((2-(ethoxymethoxy)naphthalen-1-yl)methyl)naphthalen-2-yl)oxy)methyl)piperidine] | < 25% | 75 to 100% | 75 to 100% | 75 to 100% | – | – |
| NC(=O)c1ccc2c(Cc3c(O)ccc4ccccc34)c(O)ccc2c1 [Compound A122, 6-hydroxy-5-((2-hydroxynaphthalen-1-yl)methyl)-2-naphthamide] | < 25% | 75 to 100% | 25 to 50% | 75 to 100% | – | – |
| O=C(c1c(O)ccc2ccccc12)c1c(O)ccc2ccccc12 [Compound A007, bis(2-hydroxynaphthalen-1-yl)methanone] | < 25% | 50 to 75% | < 25% | 25 to 50% | – | – |
| Oc1ccc2ccccc2c1Cc1c(OCCN2CCCCC2)ccc2ccccc12 [Compound A138, 1-((2-(2-(piperidin-1-yl)ethoxy)naphthalen-1-yl)methyl)naphthalen-2-ol] | < 25% | 75 to 100% | 75 to 100% | – | – | – |
| CCOCOc1ccc2ccccc2c1Cc1c(OCCN)ccc2ccccc12 [Compound A244, 2-((1-((2-(ethoxymethoxy)naphthalen-1-yl)methyl)naphthalen-2-yl)oxy)ethan-1-amine] | < 25% | 25 to 50% | 75 to 100% | 75 to 100% | – | – |
| COc1ccc2ccccc2c1Cc1c(OCC[N+]2(C)CCCC2)ccc2ccccc12 [Compound A129-2, 1-(2-((1-((2-methoxynaphthalen-1-yl)methyl)naphthalen-2-yl)oxy)ethyl)-1-methylpyrrolidin-1-ium formate] | 25 to 50% | 75 to 100% | 25 to 50% | – | – | – |
| COc1ccc2ccccc2c1Cc1c(OCCN(CCO)CCO)ccc2ccccc12 [Compound A195, 2,2′-((2-((1-((2-methoxynaphthalen-1-yl)methyl)naphthalen-2-yl)oxy)ethyl)azanediyl)bis(ethan-1-ol)] | < 25% | 75 to 100% | 75 to 100% | 75 to 100% | – | – |
| O=C(Nc1c(O)ccc2ccccc12)c1c(O)ccc2ccccc12 [Compound A044, 2-hydroxy-N-(2-hydroxynaphthalen-1-yl)-1-naphthamide] | < 25% | < 25% | < 25% | 25 to 50% | – | – |
| CS(=O)(=O)Nc1cc(Cc2c(NS(C)(=O)=O)ccc3ccccc23)c2ccccc2c1 [Compound A024-2, N-(1-((3-(methylsulfonamido)naphthalen-1-yl)methyl)naphthalen-2-yl)methanesulfonamide] | < 25% | 25 to 50% | < 25% | 50 to 75% | – | – |
| CCCCCCOc1ccc2ccccc2c1Cc1c(OCCN)ccc2ccccc12 [Compound A247, 2-((1-((2-(hexyloxy)naphthalen-1-yl)methyl)naphthalen-2-yl)oxy)ethan-1-amine] | < 25% | – | < 25% | – | – | – |
| CCOc1ccc2ccccc2c1Cc1c(OCCN2CCCC2)ccc2ccccc12 [Compound A255, 1-(2-((1-((2-ethoxynaphthalen-1-yl)methyl)naphthalen-2-yl)oxy)ethyl)pyrrolidine] | < 25% | 75 to 100% | 75 to 100% | 75 to 100% | – | – |
| CCN(CC)CCOc1c(C(C)C)cc2ccccc2c1Cc1c(O)c(C(C)C)cc2ccccc12 [Compound A102, 1-((2-(2-(diethylamino)ethoxy)-3-isopropylnaphthalen-1-yl)methyl)-3-isopropylnaphthalen-2-ol hydrochloride Salt] | < 25% | 75 to 100% | 50 to 75% | 75 to 100% | – | – |
| NC(=O)c1ccc2c(Cc3c(O)ccc4cc(C(N)=O)ccc34)c(O)ccc2c1 [Compound A123, 5,5′-methylenebis(6-hydroxy-2-naphthamide)] | < 25% | < 25% | < 25% | 25 to 50% | – | – |
| Nc1ccc2ccccc2c1Cc1c(N)ccc2ccccc12 [Compound A022, 1,1′-methylenebis(naphthalen-2-amine)] | < 25% | 50 to 75% | – | – | < 25% | 50 to 75% |
| CC(c1c(O)ccc2ccccc12)c1c(O)ccc2ccccc12 [Compound A012, 1,1′-(ethane-1,1-diyl) bis (naphthalen-2-ol)] | < 25% | 75 to 100% | < 25% | 25 to 50% | – | – |
| Oc1ccc2ccccc2c1Cn1c(O)nc2ccccc21 [Compound A056, 1-((2-hydroxynaphthalen-1-yl)methyl)-1H-benzo[d]imidazol-2-ol] | < 25% | 25 to 50% | < 25% | < 25% | – | – |
| COc1cccc(-c2ccncc2)c1Cc1c(O)cccc1-c1ccncc1 [Compound A118-I-1, 2-(2-methoxy-6-(pyridin-4-yl)benzyl)-3-(pyridin-4-yl)phenol] | < 25% | < 25% | < 25% | 25 to 50% | – | – |
| COCCOc1ccc2ccccc2c1Cc1c(OCCN2CCCC2)ccc2ccccc12 [Compound A258, 1-(2-((1-((2-(2-methoxyethoxy)naphthalen-1-yl)methyl)naphthalen-2-yl)oxy)ethyl)pyrrolidine] | < 25% | 75 to 100% | 75 to 100% | 75 to 100% | – | – |
| Cc1ccc(O)c(Cc2c(O)ccc(C)c2C)c1C [Compound A017, 2,2′-methylenebis(3,4-dimethylphenol)] | < 25% | 25 to 50% | < 25% | 25 to 50% | – | – |
| CC(C)c1cc2ccccc2c(Cc2c(O)c(C(C)C)cc3ccccc23)c1O [Compound A081, 1,1′-methylenebis(3-isopropylnaphthalen-2-ol)] | < 25% | 25 to 50% | < 25% | 50 to 75% | – | – |
| CCOCOc1cccc2c1C(=O)CCC2 [Compound A076, 8-(ethoxymethoxy)-3,4-dihydronaphthalen-1(2H)-one] | < 25% | 25 to 50% | < 25% | 50 to 75% | – | – |
| CCN(CC)CC(=O)Oc1ccc2ccccc2c1Cc1c(OC)ccc2ccccc12 [Compound A232, 1-((2-methoxynaphthalen-1-yl)methyl)naphthalen-2-yl diethylglycinate] | < 25% | 75 to 100% | – | – | 50 to 75% | 75 to 100% |
| CC(=O)N(c1c(O)ccc2ccccc12)c1c(O)ccc2ccccc12 [Compound A075, N,N-bis(2-hydroxynaphthalen-1-yl)acetamide] | < 25% | < 25% | < 25% | < 25% | – | – |
